Tests used:
[1] = dimethyl isosorbate as solvent; cited from earlier work
[2] = pH of KSA / KASA formulas; format: physicochemical
Procedure: In 50 ml water, 37 gms KOH are mixed with 76 gms SA. […] Administration is by gradual ingestion by sipping. A much higher dose of 2 gm KSA can be administered as needed using two 1 gm doses separated by an interval of time so that the doses overlap closely.
An example of a topical KSA is as follows: Using the supersaturated KSA formula of Example 1, a topical formula was prepared as follows: 225 ml Aloe Vera Gel was mixed with 2½ ml liquid castile soap (Dr. Bronner's was used), and 2½ ml vegetable glycerin. Dry ingredients of 900 mg citric acid, 600 mg guar gum and 14 gm dehydrated KSA are separately mixed.

[3] = 1 gm dehydrated product mixed with 225 ml water

Row | SMILES | concentration of ASA achieved in solution [1] | pH [2, 3] | pH ([2]; concentrated solution as prepared, before dehydration)
1 | CC(=O)Oc1ccccc1C(=O)O [ASA, acetylsalicylic acid] | 280 mg of ASA/ml |  | 
2 | CC(=O)Oc1ccccc1C(=O)[O-].[K+] [KASA, potassium acetylsalicyclic acid] |  | 8.42 | 
3 | O=C(O)c1ccccc1O.[K] [KSA, potassium salicylic acid] |  | 8.90 | 12.0-13.0

Reference: patent publication USRE38576E1, “Stabilized aspirin compositions and method of preparation for oral and topical use” (priority 2000, dated 2004)
